Data reported in ChEMBL document CHEMBL3272231, “beta-Adrenergic blocking agents. 16. 1-(Acylaminomethyl-, ureidomethyl-, and ureidoethylphenoxy)-3-amino-2-propanols” (1977).

How the values were obtained:
Format in all cases: functional
Felis catus [1] = test: In vivo antagonist activity at beta-1 adrenergic receptor in cat assessed as inhibition of isoproterenol-induced tachycardia administered as infusion for 30 mins by cardiotachometric analysis; settings: 0.5 h
Felis catus [2] = test: In vivo antagonist activity at beta-2 adrenergic receptor in cat assessed as inhibition of vasodepressor response administered as infusion for 30 mins relative to control
Rattus norvegicus = test: Partial agonist activity at beta adrenergic receptor in catecholamine-depleted rat assessed as change in heart rate at 2.5 mg/kg, iv

SMILES | ED50 (Felis catus [1]) | inhibition (INH) (Felis catus [2]) | Activity (Rattus norvegicus)
COc1cc(CNC(C)=O)ccc1OCC(O)CNC(C)C (stereo unspecified) | 0.312 mg/kg | 5% | -9 bpm
CCC(=O)NCc1ccc(OCC(O)CNC(C)(C)C)c(Br)c1 (stereo unspecified) | 0.1 mg/kg | 21% | 0 bpm
CC(=O)NCc1cccc(OCC(O)CNC(C)C)c1 (stereo unspecified) | 0.383 mg/kg | 83% | 
CCC(=O)NCc1ccc(OCC(O)CNC(C)C)c(OC)c1 (stereo unspecified) | 0.449 mg/kg | 37% | -19 bpm
C=CCc1cc(CNC(=O)CC)ccc1OCC(O)CNC(C)C (stereo unspecified) | 0.098 mg/kg | 3% | -10 bpm
CCC(=O)NCc1ccc(OCC(O)CNC(C)C)c(Cl)c1 (stereo unspecified) | 0.63 mg/kg | 83% | -15 bpm
COc1ccc(CCNCC(O)COc2ccc(CNC(C)=O)cc2Cl)c(OC)c1 (stereo unspecified) | 1.5 mg/kg | 17% | 
C=CCc1cc(CNC(C)=O)ccc1OCC(O)CNC(C)C (stereo unspecified) | 0.035 mg/kg | 61% | -16 bpm
CC(=O)Nc1ccc(OCC(O)CNC(C)C)cc1 (stereo unspecified) [PRACTOLOL] |  | 8% | 
CCCc1cc(CNC(C)=O)ccc1OCC(O)CNC(C)C (stereo unspecified) | 0.04 mg/kg | 51% | -17 bpm
CC(C)NCC(O)COc1ccc(CNC(=O)C(C)C)cc1Br (stereo unspecified) | 1.1 mg/kg | 43% | -16 bpm
CCC(=O)NCc1ccc(OCC(O)CNC(C)(C)C)c(OC)c1 (stereo unspecified) | 1.09 mg/kg | 72% | -12 bpm
CCCCCCC(=O)NCc1ccccc1OCC(O)CNC(C)C (stereo unspecified) | 1.16 mg/kg | 19% | 
CNC(=O)NCc1ccc(OCC(O)CNC(C)C)c(Cl)c1 (stereo unspecified) | 0.381 mg/kg | 21% | 
COc1cc(CNC(N)=O)ccc1OCC(O)CNC(C)(C)C (stereo unspecified) | 0.075 mg/kg | 68% | 
CNC(=O)NCc1ccc(OCC(O)CNC(C)C)c(OC)c1 (stereo unspecified) | 0.794 mg/kg | 87% | 
CNC(=O)NCCc1ccc(OCC(O)CNC(C)C)cc1 (stereo unspecified) | 0.193 mg/kg |  | 
CCCC(=O)NCc1ccc(OCC(O)CNC(C)C)cc1 (stereo unspecified) | 1.4 mg/kg | 51% | 
CCCNC(=O)NCCc1ccc(OCC(O)CNC(C)C)c(OC)c1 (stereo unspecified) | 0.867 mg/kg | 6% | 
CCCNC(=O)NCCc1ccc(OCC(O)CNC(C)C)cc1 (stereo unspecified) | 0.065 mg/kg | 19% | 
CC(=O)NCc1cc(C)ccc1OCC(O)CNC(C)C (stereo unspecified) | 0.381 mg/kg | 80% | 5 bpm
COc1cc(CNC(N)=O)ccc1OCC(O)CNC(C)C (stereo unspecified) | 0.072 mg/kg | 0% | 
CC(C)NCC(O)COc1ccc(CNC(N)=O)cc1Br (stereo unspecified) | 0.106 mg/kg | 25% | 
CCCc1cc(CNC(=O)CC)ccc1OCC(O)CNC(C)C (stereo unspecified) | 0.163 mg/kg | 34% | 4 bpm

SMILES | ED50 (Felis catus [1]) | inhibition (INH) (Felis catus [2]) | Activity (Rattus norvegicus)
CNC(=O)NCCc1ccc(OCC(O)CNC(C)C)c(Br)c1 (stereo unspecified) | 0.88 mg/kg | 97% | 
CC(=O)NCc1ccc(OCC(O)CNC(C)(C)C)cc1 (stereo unspecified) | 0.21 mg/kg | 32% | -7 bpm
CCNC(=O)NCc1ccc(OCC(O)CNC(C)C)c(Cl)c1 (stereo unspecified) | 1.76 mg/kg | 63% | 
CCCC(=O)NCc1ccc(OCC(O)CNC(C)(C)C)c(OC)c1 (stereo unspecified) | 0.282 mg/kg | 17% | -10 bpm
CCC(=O)NCc1ccc(OCC(O)CNC(C)C)c(Br)c1 (stereo unspecified) | 0.269 mg/kg | 7% | -15 bpm
CC(=O)NCc1ccc(OCC(O)CNC(C)(C)C)c(Cl)c1 (stereo unspecified) | 0.021 mg/kg | 30% | -30 bpm
CCOc1cc(CNC(=O)CC)ccc1OCC(O)CNC(C)C (stereo unspecified) | 0.331 mg/kg | 48% | -10 bpm
CCCCCCC(=O)NCc1ccc(OCC(O)CNC(C)(C)C)c(Cl)c1 (stereo unspecified) | 1.42 mg/kg | 40% | 
CCOc1cc(CNC(=O)CC)ccc1OCC(O)CNC(C)(C)C (stereo unspecified) | 1.41 mg/kg | 68% | 
CCC(=O)NCc1ccc(OCC(O)CNC(C)C)cc1 (stereo unspecified) | 0.658 mg/kg | 16% | -6 bpm
CC(=O)NCc1ccccc1OCC(O)CNC(C)(C)C (stereo unspecified) | 0.13 mg/kg | 63% | 41 bpm
CCNC(=O)NCCc1ccc(OCC(O)CNC(C)C)cc1 (stereo unspecified) | 1.75 mg/kg | 51% | 
COc1cc(CNC(C)=O)ccc1OCC(O)CNC(C)(C)C (stereo unspecified) | 0.045 mg/kg | 70% | -16 bpm
CCCNC(=O)NCCc1ccc(OCC(O)CNC(C)(C)C)cc1 (stereo unspecified) | 0.266 mg/kg | 27% | 
CC(C)NCC(O)COc1ccc(CNC(N)=O)cc1 (stereo unspecified) | 0.117 mg/kg | 48% | 
CC(C)NCC(O)COc1ccccc1CNC(=O)c1ccc(Cl)cc1 (stereo unspecified) | 0.304 mg/kg | 45% | 14 bpm
CCCCNC(=O)NCCc1ccc(OCC(O)CNC(C)C)cc1 (stereo unspecified) | 0.515 mg/kg | 0% | 
COc1cc(CNC(=O)C(C)C)ccc1OCC(O)CNC(C)C (stereo unspecified) | 1.14 mg/kg | 3% | -16 bpm
CC(=O)NCc1ccc(OCC(O)CNC(C)C)cc1 (stereo unspecified) | 0.142 mg/kg | 0% | 2 bpm
CNC(=O)NCc1ccc(OCC(O)CNC(C)C)c(Br)c1 (stereo unspecified) | 0.572 mg/kg | 0% | 
CCC(=O)NCc1ccccc1OCC(O)CNC(C)C (stereo unspecified) | 0.27 mg/kg | 0% | 44 bpm
CC(=O)NCc1ccc(OCC(O)CNC(C)C)c(Br)c1 (stereo unspecified) | 0.083 mg/kg | 5% | -17 bpm
CC(C)NCC(O)COc1ccc(CCNC(N)=O)cc1 (stereo unspecified) | 0.101 mg/kg | 47% | 
